Reference: patent US9399626B2, “2-thiopyrimidinones” (Pfizer Inc., priority 2011, dated 2016)

Target: T1, MPO (purified from human polynuclear leukocytes) (Homo sapiens, UniProt P05164)
T1 construct: purified from human polynuclear leukocytes; purchased Calbiochem/EMD Biosciences; host or cells: human polynuclear leukocytes (natural source)
Assay: MPO Amplex Red Activity Assay
Assay type: biochemical
Details: Table 1A, 2 μM H2O2, pH 7.4
Procedure, shortened: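 Potency is given as kinact/KI: kobs values from 600 s progress curves, minus the uninhibited rate, are fit against inhibitor concentration. Reactions use 2 μM H2O2, 30 μM Amplex Red, pH 7.4 phosphate buffer with NaCl, DTPA and 2% DMSO, started with […] human MPO. Readout is resorufin fluorescence, catalase background subtracted.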

T1 sequence (P05164 279-745 limits assumed): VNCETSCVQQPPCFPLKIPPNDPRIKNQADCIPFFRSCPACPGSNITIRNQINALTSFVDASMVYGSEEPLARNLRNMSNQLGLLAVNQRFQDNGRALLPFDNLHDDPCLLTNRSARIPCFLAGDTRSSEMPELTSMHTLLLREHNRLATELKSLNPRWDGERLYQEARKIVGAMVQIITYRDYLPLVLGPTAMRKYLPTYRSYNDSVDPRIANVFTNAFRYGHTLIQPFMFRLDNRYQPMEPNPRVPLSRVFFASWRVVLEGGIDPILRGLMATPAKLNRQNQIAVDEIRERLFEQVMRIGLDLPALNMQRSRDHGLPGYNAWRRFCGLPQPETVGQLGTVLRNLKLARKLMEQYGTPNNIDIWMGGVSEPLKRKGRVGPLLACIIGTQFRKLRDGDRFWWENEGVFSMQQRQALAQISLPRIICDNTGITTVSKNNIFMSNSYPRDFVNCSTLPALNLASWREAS
T1 sequence (P05164 165-273 limits assumed): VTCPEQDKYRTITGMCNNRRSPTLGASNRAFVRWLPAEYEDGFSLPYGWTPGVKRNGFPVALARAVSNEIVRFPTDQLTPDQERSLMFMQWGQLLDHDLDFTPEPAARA

| Compound | MPO kinact/Ki |
| --- | --- |
| COc1ccc(Cl)cc1-c1cc(=O)[nH]c(=S)n1CCCNC(=N)N1CCCC1 [Example 450, N-{3-[6-(5-chloro-2-methoxyphenyl)-4-oxo-2-thioxo-3,4-dihydropyrimidin-1(2H)-yl]propyl}pyrrolidine-1-carboximidamide] | 7730 1/s per M |
| COc1ccc(Cl)cc1-c1cc(=O)[nH]c(=S)n1CCCNC(=N)NCC(C)(F)F [Example 451, 1-{3-[6-(5-chloro-2-methoxyphenyl)-4-oxo-2-thioxo-3,4-dihydropyrimidin-1(2H)-yl]propyl}-3-(2,2-difluoropropyl)guanidine] | 16000 1/s per M |
| COc1ccc(-c2cc(=O)[nH]c(=S)n2CCNC(=O)NC(=N)N)c(OC)c1 [Example 452, 1-carbamimidoyl-3-{2-[6-(2,4-dimethoxyphenyl)-4-oxo-2-thioxo-3,4-dihydropyrimidin-1(2H)-yl]ethyl}urea] | 11600 1/s per M |
| COc1ccc(-c2cc(=O)[nH]c(=S)n2CC(F)(F)CN=C(N)N)c(OC)c1 [Example 453, 2-{3-[6-(2,4-dimethoxyphenyl)-4-oxo-2-thioxo-3,4-dihydropyrimidin-1(2H)-yl]-2,2-difluoropropyl}guanidine] | 27800 1/s per M |
